# Assay results taken from US20250195445A1, “LONG-LASTING ANTIMICROBIAL COMPOSITIONS CONTAINING CATIONIC ACTIVE AGENTS AND ANIONIC EXCIPIENTS AND USES” (priority 2022, published 2025).
# Assay: isothermal nanotitration calorimetry, interaction with beta-cyclodextrin
# Type: physicochemical
# Conditions: for strength of interaction with beta-cyclodextrin: adimensional values
# Description: In adimensional values: 1000×10^6 and 737×10^6, respectively (Table 6). [table]
SMILES,strength of interaction with beta-cyclodextrin,interaction with beta-cyclodextrin relative to interaction of sodium lauryl sulfate with beta-cyclodextrin (calorimetric analyses)
CCCCCCCCCCCCOS(=O)(=O)[O-].[Na+] [sodium lauryl sulfate],737×10^6,–
"N=C(NCCCCCCNC(=N)NC(=N)Nc1ccc(Cl)cc1)NC(=N)Nc1ccc(Cl)cc1 [chlorhexidine digluconate, 1,1′-hexamethylene bis(5-(p-chlorophenyl)biguanide)]",1000×10^6,about 1000 times
